The test system of data set [1] is human skin. Put plainly: Human skin safety, repeated insult patch test (Finn chamber). Format: in vivo. The conditions noted are these: 30 healthy adults. The method, then:
In order to confirm that the isookanin according to the present invention is safe for human skin, a skin safety verification test was performed. To this end, a repeated insult patch test was conducted.
Nourishing creams containing the isookanin in amounts of 0.1%, 0.5% and 1%, respectively, were prepared. Specifically, a water phase containing purified water, triethanolamine and propylene glycol was dissolved by heating to 70° C. and then emulsified by adding a solution obtained by dissolving beeswax, liquid paraffin, an oil component, an emulsifier and a preservative by heating to 70° C. After completion of emulsification, the solution was cooled to 45° C., and the isookanin was added thereto in amounts of 0.1%, 0.5% and 1% and dispersed therein, followed by cooling to 30° C. As the content of the isookanin was increased from 0.1% to 0.5% and 1%, the content of liquid paraffin was decreased from 9.91% to 9.51% and 9.01%, respectively, thereby preparing nourishing creams.
Using the nourishing creams prepared as described above, a repeated insult patch test was conducted on the upper arm areas of 30 healthy adults every other day for a total of 9 times for 24 hours per time to determine whether the isookanin irritated the skin.
The patch test was performed using a Finn chamber (Epitest Ltd., Finland). 15 μl of each of the external skin preparations was dropped into the chamber, and then the patch test was performed.
[Equation 1] Average degree of reaction=[[(reaction index×degree of reaction)/(total number of subjects×highest score (4)]×100]÷number of tests (9)
In the degree of reaction, ± represents a score of 1, + represents a score of 2, and ++ represents a score of 4. When the average degree of reaction is less than 3, the corresponding composition is determined to be safe.

The subject of data set [2] is human skin. The data set is described as above. The class given is in vivo. The settings on record: 30 healthy adults; 10th patch test; dash = no subject.
The subject of data set [3] is HMEC-1. Put plainly: PGE2-induced vascular endothelial cell migration (scratch assay). The class given is cell-based, human. The settings on record: 20 μM, 24 hours; compared with 100 ng/ml VEGF. How it is done: Human vascular endothelial cells (HMEC-1) were seeded in a 12-well plate at a density of 2×10^5 cells per well and cultured in an incubator for 24 hours at 37° C. under 5% CO2. After the cells in each well were grown to 80% confluency, the central part of each well was scratched using a yellow pipette tip. Next, each well was pretreated with each concentration of isookanin for 2 hours and then treated with 20 μM PGE2 and incubated for 24 hours. As a negative control, 100 ng/ml of VEGF was used. After 24 hours of incubation, the degree of vascular cell migration was observed using a microscope, and the results were photographed with a microscope camera and shown in FIG. 9.

The subject of data set [4] is HMEC-1. Put plainly: PGE2-induced vascular endothelial cell tube formation on Matrigel. Format: cell-based, human. The conditions noted are these: 20 μM, 24 hours; compared with 100 ng/ml VEGF. How it is done:
Human vascular endothelial cells (HMEC-1) were seeded in a Matrigel-coated 24-well plate at a density of 1.2×10^5 cells per well, and each well was pretreated with 10 ppm of isookanin for 2 hours. Next, each well was treated with PGE2 at a concentration of 20 μM and incubated for 24 hours. As a negative control, 100 ng/ml of VEGF was used. After 24 hours of incubation, the degree of vascular cell tube formation was observed using a microscope, and the results were photographed with a microscope camera and analyzed with Image J, and are shown in FIGS. 10 and 11.

Consider two molecules from patent publication US12502374B2, “Composition for preventing, alleviating, or treating inflammatory disease containing isookanin or salt thereof as active ingredient” (BioSpectrum, Inc., priority 2020, dated 2025).

Turning to `CC(C)=CCC/C(C)=C/CC/C(C)=C/CC/C=C(\C)CC/C=C(\C)CCC=C(C)C` [squalene], in the data set with human skin [1] (upper arm, 24 hours per patch, Equation 1, less than 3 is determined to be safe), the “Average degree of reaction” value stood at 0.09. Also, the “Number of subjects showing reaction (±, +, ++), 1st” value in the data set with human skin [1] (1st patch test, dash = no subject) is recorded as “- - -”. For the same molecule, in the data set with human skin [1] (2nd patch test, dash = no subject), the “Number of subjects showing reaction (±, +, ++), 2nd” value is given as “- - -”. Besides, the “Number of subjects showing reaction (±, +, ++), 5th” value in the data set with human skin [1] (5th patch test, dash = no subject) was “- - -”. In addition, in the data set with human skin [1] (6th patch test, dash = no subject), the “Number of subjects showing reaction (±, +, ++), 6th” value is “- -”. For the same molecule, the “Number of subjects showing reaction (±, +, ++), 7th” value in the data set with human skin [1] (7th patch test, dash = no subject) is listed as “- - -”. Besides, the “Number of subjects showing reaction (±, +, ++), 8th” value with human skin [1] (8th patch test, dash = no subject) is reported as “- - -”. Also, the “Number of subjects showing reaction (±, +, ++), column between 3rd and 5th” value in the data set with human skin [1] (dash = no subject) is recorded as “- - -”. Further, in the data set on human skin [2], the “Number of subjects showing reaction (±, +, ++), 10th” value is listed as “- - -”.

`CCCCC[C@H](O)/C=C/[C@H]1[C@H](O)CC(=O)[C@@H]1C/C=C\CCCC(=O)O` [PGE2, reference compound]: the “effect on vascular endothelial cell migration” value with HMEC-1 [3] is listed as “promoted vascular endothelial cell migration, similar to VEGF”. The “effect on vascular cell tube formation” value in the data set on HMEC-1 [4] is “promoted vascular cell tube formation, similar to VEGF”.
